These are literature values, as cited in PMC3877923 (Journal of the American Chemical Society, 2013).

SMILES strings stand for the structures. Marks after values point to notes of the source that are not given here.

Turning to `Cc1cc(C#N)cc(C)c1Oc1nc(Nc2ccc(C#N)cc2)nc(N)c1Br` [etravirine], the “Aqueous solubility S” value is reported as << 1 ^b µg/mL.
